Measurements taken from patent US9040534B2, “[1,2,4]triazolo[4,3-a]pyrazines as P2X7 modulators” (Janssen Pharmaceutica NV, priority 2013, dated 2015).

How the values were obtained:
P2X7 [1] = target: T1, P2X7 (Homo sapiens (Human), UniProt Q99572); assay: Ca2+ flux (FLIPR) in 1321N1 cells expressing recombinant human P2X7 channel; type: cell-based; settings: 250 μM BzATP
Procedure: (§1) (A) Ca^2+ Flux: 1321N1 cells expressing the recombinant human, rat or mouse P2X7 channel was cultured in HyQ DME/(HyClone/Dulbecco's Modified Eagle Medium) high glucose supplemented with 10% Fetal Bovine Serum (FBS) and appropriate selection marker. Cells were seeded at a density of 25000 cells/well (96-well clear bottom black walled plates) in 100 μl volume/well. On the day of the experiment, cell plates were washed with assay buffer, containing (in mM): 130 NaCl, 2 KCl, 1 CaCl2, 1 MgCl2, 10 HEPES, 5 glucose; pH 7.40 and 300 mOs. After the wash, cells were loaded with the Calcium-4 dye (Molecular Device) and incubated in the dark for 60 minutes. Test compounds were prepared at 250× the test concentration in neat DMSO. Intermediate 96-well compound plates were prepared by transferring 1.2 μL of the compound into 300 μL of assay buffer. A further 3× dilution occurred when transferring 50 μL/well of the compound plate to 100 μL/well in the cell plate. Cells were incubated with test compounds and dye for 30 minutes. […] The fluorescence change was measured 180 seconds after adding the agonist.

rat P2X7 = rat P2X7 (Rattus norvegicus (Rat), UniProt Q64663); assay: Ca2+ flux (FLIPR) in 1321N1 cells expressing recombinant rat P2X7 channel; type: cell-based; settings: 250 μM BzATP
Procedure: as §1

P2X7 [2] = target: T1, P2X7; assay: Radioligand binding, human P2X7-1321N1 cell membranes, tritiated A-804598 tracer; settings: 1 hour at 4° C.
Procedure: (B) Radioligand binding: human or rat P2X7-1321N1 cells were collected and frozen @ −80° C. On the day of the experiment, cell membrane preparations were made according to standard published methods. […] The compound can be prepared as described in the literature. […] The assay was terminated by filtration (GF/B filters pre-soaked with 0.3% PEI) and washed with washing buffer (Tris-HCl 50 mM). The IC50 generated in the binding assay was corrected for tracer concentration and affinity of the tracer to derive at the affinity (Ki) of the test compounds.

rat P2X7, sequence (Q64663 whole entry): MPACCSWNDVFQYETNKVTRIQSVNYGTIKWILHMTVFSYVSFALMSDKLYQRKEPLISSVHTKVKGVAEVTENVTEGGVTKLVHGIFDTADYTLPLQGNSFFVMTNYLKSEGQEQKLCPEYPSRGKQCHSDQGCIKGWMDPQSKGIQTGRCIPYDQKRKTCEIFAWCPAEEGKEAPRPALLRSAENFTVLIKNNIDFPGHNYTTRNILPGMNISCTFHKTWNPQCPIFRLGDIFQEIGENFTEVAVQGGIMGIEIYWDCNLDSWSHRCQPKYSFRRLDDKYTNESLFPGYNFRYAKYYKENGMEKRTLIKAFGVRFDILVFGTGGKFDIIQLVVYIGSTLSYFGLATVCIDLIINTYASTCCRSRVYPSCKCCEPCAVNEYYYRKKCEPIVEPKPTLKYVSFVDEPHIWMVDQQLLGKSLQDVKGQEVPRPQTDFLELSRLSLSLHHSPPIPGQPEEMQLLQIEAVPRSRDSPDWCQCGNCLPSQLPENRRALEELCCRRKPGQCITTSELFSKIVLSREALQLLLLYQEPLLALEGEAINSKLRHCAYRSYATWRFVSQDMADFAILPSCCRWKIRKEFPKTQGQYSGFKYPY
T1 sequence (Q99572 whole entry): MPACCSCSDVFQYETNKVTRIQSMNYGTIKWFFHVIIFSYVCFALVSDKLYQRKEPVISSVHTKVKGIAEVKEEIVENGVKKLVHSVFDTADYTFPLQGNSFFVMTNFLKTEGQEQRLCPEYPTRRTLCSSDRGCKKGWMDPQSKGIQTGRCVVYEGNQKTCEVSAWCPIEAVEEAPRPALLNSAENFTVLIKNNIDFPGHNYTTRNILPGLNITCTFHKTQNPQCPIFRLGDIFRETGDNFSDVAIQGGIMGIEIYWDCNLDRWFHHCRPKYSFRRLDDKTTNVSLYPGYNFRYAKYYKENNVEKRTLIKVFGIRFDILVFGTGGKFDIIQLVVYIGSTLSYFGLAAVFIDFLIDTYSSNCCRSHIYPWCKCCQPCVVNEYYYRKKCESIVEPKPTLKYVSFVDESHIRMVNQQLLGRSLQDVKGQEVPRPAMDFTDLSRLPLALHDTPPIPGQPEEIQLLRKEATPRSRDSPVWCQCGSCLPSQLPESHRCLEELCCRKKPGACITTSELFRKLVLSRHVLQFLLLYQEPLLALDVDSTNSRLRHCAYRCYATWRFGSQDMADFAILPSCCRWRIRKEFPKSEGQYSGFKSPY

Structure (SMILES) | IC50 (P2X7 [1]) [nM] | IC50 (rat P2X7) [nM] | Ki (P2X7 [2]) [nM]
CC(c1cccc(C(F)(F)F)c1Cl)N1CCn2c(nnc2-c2cnccn2)C1=O (racemic) [Example 4, (±)7-{1-[2-Chloro-3-(trifluoromethyl)phenyl]ethyl}-3-pyrazin-2-yl-6,7-dihydro[1,2,4]triazolo[4,3-a]pyrazin-8(5H)-one] | 2690 | > 10000 | –
O=C1c2nnc(-c3ncc(F)cn3)n2CC(C2CC2)N1Cc1cccc(C(F)(F)F)c1Cl (racemic) [Example 70, (±)-7-[2-Chloro-3-(trifluoromethyl)benzyl]-6-cyclopropyl-3-(5-fluoropyrimidin-2-yl)-6,7-dihydro[1,2,4]triazolo[4,3-a]pyrazin-8(5H)-one] | 7.9 | 794 | 7.9
O=C1c2nnc(-c3ccc(F)cc3)n2CCN1Cc1cccc(C(F)(F)F)c1Cl [Example 1, 7-[2-Chloro-3-(trifluoromethyl)benzyl]-3-(4-fluorophenyl)-6,7-dihydro[1,2,4]triazolo[4,3-a]pyrazin-8(5H)-one] | 148 | 28400 | 63.1
O=C1c2nnc(-c3cnccn3)n2CCN1Cc1c(Cl)cccc1Cl [Example 5, 7-(2,6-Dichlorobenzyl)-3-pyrazin-2-yl-6,7-dihydro[1,2,4]triazolo[4,3-a]pyrazin-8(5H)-one] | 942 | 2560 | –
O=C1c2nnc(-c3cnccn3)n2CCN1Cc1cccc(F)c1F [Example 6, 7-(2,3-Difluorobenzyl)-3-pyrazin-2-yl-6,7-dihydro[1,2,4]triazolo[4,3-a]pyrazin-8(5H)-one] | – | > 10000 | –
CS(=O)(=O)c1cc(Cl)ccc1CN1CCn2c(nnc2-c2cnccn2)C1=O [Example 7, 7-[4-Chloro-2-(methylsulfonyl)benzyl]-3-pyrazin-2-yl-6,7-dihydro[1,2,4]triazolo[4,3-a]pyrazin-8(5H)-one] | 3400 | > 10000 | –
C[C@H]1Cn2c(nnc2-c2cn[nH]c2)C(=O)N1Cc1cccc(C(F)(F)F)c1Cl [Example 25, (6S)-7-[2-Chloro-3-(trifluoromethyl)benzyl]-6-methyl-3-(1H-pyrazol-4-yl)-6,7-dihydro[1,2,4]triazolo[4,3-a]pyrazin-8(5H)-one] | 96.6 | 3150 | 25.1
C[C@H]1Cn2c(nnc2-c2nccs2)C(=O)N1Cc1cccc(C(F)(F)F)c1Cl [Example 31, (6S)-7-[2-Chloro-3-(trifluoromethyl)benzyl]-6-methyl-3-(1,3-thiazol-2-yl)-6,7-dihydro[1,2,4]triazolo[4,3-a]pyrazin-8(5H)-one] | 1.2 | 135 | 4
C[C@H]1Cn2c(nnc2-c2ncc(F)cn2)C(=O)N1Cc1cccc(C(F)(F)F)c1Cl [Example 34, (6S)-7-[2-Chloro-3-(trifluoromethyl)benzyl]-3-(5-fluoropyrimidin-2-yl)-6-methyl-6,7-dihydro[1,2,4]triazolo[4,3-a]pyrazin-8(5H)-one] | 1 | – | –
COc1ccnc(-c2nnc3n2C[C@H](C)N(Cc2cccc(C(F)(F)F)c2Cl)C3=O)c1 [Example 35, (6S)-7-[2-Chloro-3-(trifluoromethyl)benzyl]-3-(4-methoxypyridin-2-yl)-6-methyl-6,7-dihydro[1,2,4]triazolo[4,3-a]pyrazin-8(5H)-one] | 0.7 | 10.6 | 2
C[C@H]1Cn2c(nnc2-c2csc(C(F)(F)F)n2)C(=O)N1Cc1cccc(C(F)(F)F)c1Cl [Example 38, (6S)-7-[2-Chloro-3-(trifluoromethyl)benzyl]-6-methyl-3-[2-(trifluoromethyl)-1,3-thiazol-4-yl]-6,7-dihydro[1,2,4]triazolo[4,3-a]pyrazin-8(5H)-one] | 977 | 2610 | –
Cc1nc(C)c(-c2nnc3n2C[C@H](C)N(Cc2cccc(C(F)(F)F)c2Cl)C3=O)s1 [Example 39, (6S)-7-[2-Chloro-3-(trifluoromethyl)benzyl]-3-(2,4-dimethyl-1,3-thiazol-5-yl)-6-methyl-6,7-dihydro[1,2,4]triazolo[4,3-a]pyrazin-8(5H)-one] | 22.4 | 8670 | 27.5
C[C@H]1Cn2c(nnc2-c2ncc(Br)cn2)C(=O)N1Cc1cccc(C(F)(F)F)c1Cl [Example 42, (6S)-3-(5-Bromopyrimidin-2-yl)-7-[2-chloro-3-(trifluoromethyl)benzyl]-6-methyl-6,7-dihydro[1,2,4]triazolo[4,3-a]pyrazin-8(5H)-one] | 17.5 | > 10000 | 7.9
C[C@H]1Cn2c(nnc2-c2cccnn2)C(=O)N1Cc1cccc(C(F)(F)F)c1Cl [Example 44, (6S)-7-[2-Chloro-3-(trifluoromethyl)benzyl]-6-methyl-3-pyridazin-3-yl-6,7-dihydro[1,2,4]triazolo[4,3-a]pyrazin-8(5H)-one] | 177 | 19900 | –
Cc1cccc(-c2nnc3n2C[C@H](C)N(Cc2cccc(C(F)(F)F)c2Cl)C3=O)n1 [Example 46, (6S)-7-[2-Chloro-3-(trifluoromethyl)benzyl]-6-methyl-3-(6-methylpyridin-2-yl)-6,7-dihydro[1,2,4]triazolo[4,3-a]pyrazin-8(5H)-one] | 3.3 | 154 | 12.6
C[C@H]1Cn2c(nnc2C2CCC2)C(=O)N1Cc1cccc(C(F)(F)F)c1Cl [Example 49, (6S)-7-[2-Chloro-3-(trifluoromethyl)benzyl]-3-cyclobutyl-6-methyl-6,7-dihydro[1,2,4]triazolo[4,3-a]pyrazin-8(5H)-one] | 386 | 13200 | –
C[C@H]1Cn2c(nnc2C2CC2)C(=O)N1Cc1cccc(C(F)(F)F)c1Cl [Example 50, (6S)-7-[2-Chloro-3-(trifluoromethyl)benzyl]-3-cyclopropyl-6-methyl-6,7-dihydro[1,2,4]triazolo[4,3-a]pyrazin-8(5H)-one] | 371 | > 10000 | –
C[C@H]1Cn2c(nnc2C2CCCCC2)C(=O)N1Cc1cccc(C(F)(F)F)c1Cl [Example 51, (6S)-7-[2-Chloro-3-(trifluoromethyl)benzyl]-3-cyclohexyl-6-methyl-6,7-dihydro[1,2,4]triazolo[4,3-a]pyrazin-8(5H)-one] | 766 | > 10000 | –
C[C@H]1Cn2c(nnc2C2CCOCC2)C(=O)N1Cc1cccc(C(F)(F)F)c1Cl [Example 53, (6S)-7-[2-Chloro-3-(trifluoromethyl)benzyl]-6-methyl-3-(tetrahydro-2H-pyran-4-yl)-6,7-dihydro[1,2,4]triazolo[4,3-a]pyrazin-8(5H)-one] | – | > 10000 | –
C[C@H]1Cn2c(nnc2-c2cnccn2)C(=O)N1Cc1ccccc1 [Example 79, (6S)-7-Benzyl-6-methyl-3-pyrazin-2-yl-6,7-dihydro[1,2,4]triazolo[4,3-a]pyrazin-8(5H)-one] | – | > 10000 | –
C[C@H]1Cn2c(nnc2-c2cnccn2)C(=O)N1Cc1ccccc1Cl [Example 80, (6S)-7-(2-Chlorobenzyl)-6-methyl-3-pyrazin-2-yl-6,7-dihydro[1,2,4]triazolo[4,3-a]pyrazin-8(5H)-one] | – | 41400 | –
C[C@H]1Cn2c(nnc2-c2cnccn2)C(=O)N1Cc1ccccc1OC(F)(F)F [Example 83, (6S)-6-Methyl-3-pyrazin-2-yl-7-[2-(trifluoromethoxy)benzyl]-6,7-dihydro[1,2,4]triazolo[4,3-a]pyrazin-8(5H)-one] | 822 | 11100 | –
C[C@H]1Cn2c(nnc2-c2cnccn2)C(=O)N1Cc1cc2c(cc1Cl)OCO2 [Example 84, (6S)-7-[(6-Chloro-1,3-benzodioxol-5-yl)methyl]-6-methyl-3-pyrazin-2-yl-6,7-dihydro[1,2,4]triazolo[4,3-a]pyrazin-8(5H)-one] | 340 | > 10000 | –
C[C@H]1Cn2c(nnc2-c2cnccn2)C(=O)N1Cc1c(Cl)cccc1Cl [Example 86, (6S)-7-(2,6-Dichlorobenzyl)-6-methyl-3-pyrazin-2-yl-6,7-dihydro[1,2,4]triazolo[4,3-a]pyrazin-8(5H)-one] | – | 1370 | –
C[C@H]1Cn2c(nnc2-c2cnccn2)C(=O)N1Cc1ccccc1[N+](=O)[O-] [Example 89, (6S)-6-Methyl-7-(2-nitrobenzyl)-3-pyrazin-2-yl-6,7-dihydro[1,2,4]triazolo[4,3-a]pyrazin-8(5H)-one] | 26.4 | 7280 | –
C[C@H]1Cn2c(nnc2-c2cnccn2)C(=O)N1Cc1cc([N+](=O)[O-])ccc1Cl [Example 90, (6S)-7-(2-Chloro-5-nitrobenzyl)-6-methyl-3-pyrazin-2-yl-6,7-dihydro[1,2,4]triazolo[4,3-a]pyrazin-8(5H)-one] | 1000 | 20000 | –
C[C@H]1Cn2c(nnc2-c2cnccn2)C(=O)N1Cc1cc(N)ccc1Cl [Example 91, (6S)-7-(5-Amino-2-chlorobenzyl)-6-methyl-3-pyrazin-2-yl-6,7-dihydro[1,2,4]triazolo[4,3-a]pyrazin-8(5H)-one] | 1220 | 18900 | –
